Test results: PubChem BioAssay (NCI)
Values joined by “and” are separate entries in the source; they are usually repeats but may differ in a detail not shown here. Equal entries are not always repeated.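 These data come from cells grown in 96-well plates and exposed to compound for 48 hours at five concentrations. Here, GI50 denotes the concentration required for 50% inhibition of growth. TGI: concentration producing complete growth inhibition.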

Key:
Test in all cases: NCI tumour cell line growth inhibition, 48 h
786-0 renal = tested on: 786-0 renal
HL-60(TB) leukemia = tested on: HL-60(TB) leukemia
MDA-MB-231 breast = tested on: MDA-MB-231 breast
MDA-MB-435 = tested on: MDA-MB-435
MOLT-4 leukemia = tested on: MOLT-4 leukemia
OVCAR-4 ovarian = tested on: OVCAR-4 ovarian
OVCAR-5 ovarian = tested on: OVCAR-5 ovarian
SNB-19 CNS = tested on: SNB-19 CNS
U251 CNS = tested on: U251 CNS
UACC-257 melanoma = tested on: UACC-257 melanoma

CNC(=O)c1sc(-n2cnc3cc(OC)c(OC)cc32)cc1OCc1ccccc1C(F)(F)F
GI50 (786-0 renal): > 25000 nM | TGI (786-0 renal): > 25000 nM | GI50 (HL-60(TB) leukemia): > 15800 nM | TGI (HL-60(TB) leukemia): > 25000 nM | GI50 (MDA-MB-231 breast): 15900 nM | TGI (MDA-MB-231 breast): > 25000 nM | GI50 (MDA-MB-435): > 25000 nM | TGI (MDA-MB-435): > 25000 nM | GI50 (MOLT-4 leukemia): > 23600 nM | TGI (MOLT-4 leukemia): > 25000 nM | GI50 (OVCAR-4 ovarian): > 25000 nM | TGI (OVCAR-4 ovarian): > 25000 nM | GI50 (OVCAR-5 ovarian): > 25000 nM | TGI (OVCAR-5 ovarian): > 25000 nM | GI50 (SNB-19 CNS): > 23600 nM | TGI (SNB-19 CNS): > 25000 nM | GI50 (U251 CNS): > 25000 nM | TGI (U251 CNS): > 25000 nM | GI50 (UACC-257 melanoma): > 25000 nM | TGI (UACC-257 melanoma): > 25000 nM

COc1cc(/C=N\Nc2ccccc2)ccc1OC(=O)c1ccccc1
GI50 (786-0 renal): 5090 nM | TGI (786-0 renal): > 100000 nM | GI50 (HL-60(TB) leukemia): 544 nM | TGI (HL-60(TB) leukemia): > 72100 nM | GI50 (MDA-MB-231 breast): 1910 nM | TGI (MDA-MB-231 breast): 32200 nM | GI50 (MDA-MB-435): 1250 nM | TGI (MDA-MB-435): > 100000 nM | GI50 (MOLT-4 leukemia): 1940 nM | TGI (MOLT-4 leukemia): > 100000 nM | GI50 (OVCAR-4 ovarian): 8210 nM | TGI (OVCAR-4 ovarian): > 100000 nM | GI50 (OVCAR-5 ovarian): 12800 nM | TGI (OVCAR-5 ovarian): > 100000 nM | GI50 (SNB-19 CNS): 19800 nM | TGI (SNB-19 CNS): > 100000 nM | GI50 (U251 CNS): 8380 nM | TGI (U251 CNS): 36500 nM | GI50 (UACC-257 melanoma): 7120 nM | TGI (UACC-257 melanoma): > 100000 nM

COc1cc2c3c(c4cc(OC)c(OC)cc4c2cc1OC)CN1CCC[C@H]1C3
GI50 (786-0 renal): 41.7 nM and 10.3 nM | TGI (786-0 renal): > 10000 nM and 2460 nM | GI50 (HL-60(TB) leukemia): 85.3 nM and < 16.5 nM | TGI (MDA-MB-231 breast): 174 nM | GI50 (MDA-MB-435): 29.8 nM and < 14.7 nM | TGI (MDA-MB-435): 494 nM and 1290 nM | GI50 (MOLT-4 leukemia): 38.2 nM and < 10 nM | TGI (MOLT-4 leukemia): > 34900 nM | GI50 (OVCAR-4 ovarian): 41.9 nM and < 10 nM | TGI (OVCAR-4 ovarian): 1280 nM and 392 nM | TGI (OVCAR-5 ovarian): 681 nM | TGI (SNB-19 CNS): 184 nM | GI50 (U251 CNS): 22.1 nM and < 10 nM | TGI (U251 CNS): 331 nM | TGI (UACC-257 melanoma): 338 nM and 937 nM

Nc1nc(SCC#CCCl)c2[nH]cnc2n1
GI50 (786-0 renal): 4300 nM | TGI (786-0 renal): 14900 nM | GI50 (HL-60(TB) leukemia): 2080 nM | TGI (HL-60(TB) leukemia): 6610 nM | GI50 (MDA-MB-231 breast): 6260 nM | TGI (MDA-MB-231 breast): 21400 nM | GI50 (MDA-MB-435): 3810 nM | TGI (MDA-MB-435): 18600 nM | GI50 (MOLT-4 leukemia): 4110 nM | TGI (MOLT-4 leukemia): 30200 nM | GI50 (OVCAR-4 ovarian): 4320 nM | TGI (OVCAR-4 ovarian): 67400 nM | GI50 (OVCAR-5 ovarian): 4580 nM | TGI (OVCAR-5 ovarian): 17700 nM | GI50 (SNB-19 CNS): 10500 nM | TGI (SNB-19 CNS): 23200 nM | GI50 (U251 CNS): 2970 nM | TGI (U251 CNS): 7790 nM | GI50 (UACC-257 melanoma): 7120 nM | TGI (UACC-257 melanoma): 22500 nM

Cc1cnc(C(=O)Nc2nc3ccc(S(=O)(=O)Nc4ccc(C(C)(C)C)cc4)cc3[nH]2)cn1
GI50 (786-0 renal): 552 nM | TGI (786-0 renal): 13700 nM | GI50 (HL-60(TB) leukemia): 304 nM | TGI (HL-60(TB) leukemia): 1070 nM | GI50 (MDA-MB-231 breast): 1410 nM | TGI (MDA-MB-231 breast): 10700 nM | GI50 (MDA-MB-435): 135 nM | TGI (MDA-MB-435): 434 nM | GI50 (MOLT-4 leukemia): 562 nM | TGI (MOLT-4 leukemia): 5900 nM | GI50 (OVCAR-4 ovarian): 1460 nM | TGI (OVCAR-4 ovarian): 17300 nM | GI50 (OVCAR-5 ovarian): 1410 nM | TGI (OVCAR-5 ovarian): 10700 nM | GI50 (SNB-19 CNS): 591 nM | TGI (SNB-19 CNS): 13700 nM | GI50 (U251 CNS): 648 nM | TGI (U251 CNS): 9990 nM | GI50 (UACC-257 melanoma): 2390 nM | TGI (UACC-257 melanoma): 22700 nM

CN1CCN(Cc2ccc(NC(=O)c3cncc(C#Cc4c(N)ncc5ccccc45)c3)cc2C(F)(F)F)CC1
GI50 (786-0 renal): 890 nM | TGI (786-0 renal): 1660 nM | GI50 (HL-60(TB) leukemia): 160 nM | TGI (HL-60(TB) leukemia): 781 nM | GI50 (MDA-MB-231 breast): 336 nM | TGI (MDA-MB-231 breast): 1040 nM | GI50 (MDA-MB-435): 291 nM | TGI (MDA-MB-435): 968 nM | GI50 (MOLT-4 leukemia): 276 nM | TGI (MOLT-4 leukemia): 1370 nM | GI50 (OVCAR-4 ovarian): 309 nM | TGI (OVCAR-4 ovarian): 1100 nM | GI50 (OVCAR-5 ovarian): 658 nM | TGI (OVCAR-5 ovarian): 1450 nM | GI50 (SNB-19 CNS): 924 nM | TGI (SNB-19 CNS): 1760 nM | GI50 (U251 CNS): 686 nM | TGI (U251 CNS): 1410 nM | GI50 (UACC-257 melanoma): 773 nM | TGI (UACC-257 melanoma): 1600 nM

COC(=O)c1sc(-n2cnc3cc(OC)c(OC)cc32)cc1OCc1ccccc1C(F)(F)F
GI50 (786-0 renal): 10800 nM | TGI (786-0 renal): > 25000 nM | GI50 (HL-60(TB) leukemia): > 25000 nM | TGI (HL-60(TB) leukemia): > 25000 nM | GI50 (MDA-MB-231 breast): 5790 nM | TGI (MDA-MB-231 breast): > 25000 nM | GI50 (MDA-MB-435): > 25000 nM | TGI (MDA-MB-435): > 25000 nM | GI50 (MOLT-4 leukemia): > 25000 nM | TGI (MOLT-4 leukemia): > 25000 nM | GI50 (OVCAR-4 ovarian): > 25000 nM | TGI (OVCAR-4 ovarian): > 25000 nM | GI50 (OVCAR-5 ovarian): > 25000 nM | TGI (OVCAR-5 ovarian): > 25000 nM | GI50 (SNB-19 CNS): 24900 nM | TGI (SNB-19 CNS): > 25000 nM | GI50 (U251 CNS): 10800 nM | TGI (U251 CNS): > 25000 nM | GI50 (UACC-257 melanoma): > 25000 nM | TGI (UACC-257 melanoma): > 25000 nM

CC1CCc2c(C(=O)Nc3ncc(Cc4cccc([N+](=O)[O-])c4)s3)csc2C1 (stereo not given)
GI50 (786-0 renal): 1180 nM | TGI (786-0 renal): > 100000 nM | GI50 (HL-60(TB) leukemia): 324 nM | TGI (HL-60(TB) leukemia): 3800 nM | GI50 (MDA-MB-231 breast): 1030 nM | TGI (MDA-MB-231 breast): > 100000 nM | GI50 (MDA-MB-435): 133 nM | TGI (MDA-MB-435): 450 nM | GI50 (MOLT-4 leukemia): 575 nM | TGI (MOLT-4 leukemia): > 100000 nM | GI50 (OVCAR-4 ovarian): 1640 nM | TGI (OVCAR-4 ovarian): > 100000 nM | GI50 (OVCAR-5 ovarian): 1560 nM | TGI (OVCAR-5 ovarian): > 100000 nM | GI50 (SNB-19 CNS): 678 nM | TGI (SNB-19 CNS): > 100000 nM | GI50 (U251 CNS): 523 nM | TGI (U251 CNS): > 100000 nM | GI50 (UACC-257 melanoma): 3770 nM | TGI (UACC-257 melanoma): > 100000 nM
